Data taken from ChEMBL document CHEMBL1148595, “Identification of Darmstoff analogs as selective agonists and antagonists of lysophosphatidic acid receptors” (Bioorg Med Chem Lett, 2006).

Legend:
[1] = target: Lysophosphatidic acid receptor 2 (Homo sapiens, UniProt Q9HBW0); assay: Activity at LPA2 receptor in RH7777 rat hepatoma cell line; type: cell-based
[2] = target: T1, Lysophosphatidic acid receptor 3 (Rattus norvegicus, UniProt Q8K5E0); assay: (§1) Activity at LPA3 receptor in RH7777 rat hepatoma cell line; type: cell-based
T1 sequence (Q8K5E0 whole entry): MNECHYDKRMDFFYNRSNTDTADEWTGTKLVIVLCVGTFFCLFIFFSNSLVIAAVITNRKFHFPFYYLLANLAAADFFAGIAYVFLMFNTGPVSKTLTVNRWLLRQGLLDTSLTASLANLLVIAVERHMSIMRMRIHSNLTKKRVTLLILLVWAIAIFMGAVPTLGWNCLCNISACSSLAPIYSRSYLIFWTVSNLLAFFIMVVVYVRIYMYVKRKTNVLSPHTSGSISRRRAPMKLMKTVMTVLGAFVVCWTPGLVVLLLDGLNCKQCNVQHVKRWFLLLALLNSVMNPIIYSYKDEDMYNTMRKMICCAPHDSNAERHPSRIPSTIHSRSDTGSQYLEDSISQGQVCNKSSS

[3] = target: T2, Peroxisome proliferator-activated receptor gamma (Homo sapiens) (UniProt P37231); assay: PPARgamma activation in CV1 cells; type: cell-based; settings: CV-1, filed as agonist
T2 sequence (whole entry): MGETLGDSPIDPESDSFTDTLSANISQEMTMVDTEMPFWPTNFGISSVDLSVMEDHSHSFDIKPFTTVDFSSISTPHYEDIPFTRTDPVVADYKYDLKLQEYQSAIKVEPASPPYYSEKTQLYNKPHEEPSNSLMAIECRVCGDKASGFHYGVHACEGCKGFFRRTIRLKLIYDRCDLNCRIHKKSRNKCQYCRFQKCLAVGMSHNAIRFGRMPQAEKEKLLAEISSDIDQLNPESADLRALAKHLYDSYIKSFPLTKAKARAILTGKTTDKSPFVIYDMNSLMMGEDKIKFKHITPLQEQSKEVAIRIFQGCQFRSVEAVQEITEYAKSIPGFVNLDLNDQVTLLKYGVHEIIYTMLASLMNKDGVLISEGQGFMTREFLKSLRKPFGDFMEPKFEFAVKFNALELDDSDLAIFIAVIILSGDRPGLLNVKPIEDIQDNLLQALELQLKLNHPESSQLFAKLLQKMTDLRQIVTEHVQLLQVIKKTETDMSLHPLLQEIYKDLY

Autotaxin = Autotaxin (Homo sapiens, UniProt Q13822); assay: Inhibition of lysophospholipase D autotaxin; settings: for residual activity: values are per cent of control
[4] = target: Lysophosphatidic acid receptor 1 (Rattus norvegicus, UniProt P61794); assay: Activity at LPA1 receptor in RH7777 rat hepatoma cell line
Sequence of Lysophosphatidic acid receptor 1 (P61794 whole entry): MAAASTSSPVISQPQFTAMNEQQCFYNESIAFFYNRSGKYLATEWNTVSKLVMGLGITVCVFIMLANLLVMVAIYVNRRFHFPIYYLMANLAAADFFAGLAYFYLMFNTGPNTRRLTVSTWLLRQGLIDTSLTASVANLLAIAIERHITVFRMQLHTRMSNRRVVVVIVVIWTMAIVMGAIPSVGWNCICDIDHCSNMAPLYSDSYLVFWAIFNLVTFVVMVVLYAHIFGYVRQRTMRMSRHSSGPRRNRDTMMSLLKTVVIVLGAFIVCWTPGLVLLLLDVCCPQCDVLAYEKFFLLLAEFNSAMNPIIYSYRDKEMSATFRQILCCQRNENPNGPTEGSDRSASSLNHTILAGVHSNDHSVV

[5] = target: T3, Lysophosphatidic acid receptor 3 (Rattus norvegicus) (UniProt Q8K5E0); assay: as §1; type: cell-based
T3 sequence (whole entry): T1 sequence (Q8K5E0 whole entry)

Sequence of Lysophosphatidic acid receptor 2 (Q9HBW0 whole entry): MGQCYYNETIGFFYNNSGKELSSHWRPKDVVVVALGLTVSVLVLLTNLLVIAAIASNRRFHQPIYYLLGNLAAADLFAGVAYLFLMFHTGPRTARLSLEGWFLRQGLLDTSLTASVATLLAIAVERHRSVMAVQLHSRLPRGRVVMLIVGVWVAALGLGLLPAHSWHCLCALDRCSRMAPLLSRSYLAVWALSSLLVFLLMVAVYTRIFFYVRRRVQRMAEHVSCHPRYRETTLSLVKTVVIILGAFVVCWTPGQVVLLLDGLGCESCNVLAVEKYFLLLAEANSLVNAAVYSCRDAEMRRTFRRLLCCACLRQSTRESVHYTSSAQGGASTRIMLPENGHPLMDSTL

Structure (SMILES)	IC50 [2] [nM]	Ki [2] [nM]	Activity [3]	IC50 (Autotaxin) [nM]	residual activity (Autotaxin) [%]	IC50 [4] [nM]	Ki [4] [nM]	IC50 [1] [nM]	Ki [1] [nM]	EC50 [1] [nM]	Emax [1] [%]	EC50 [4] [nM]	Emax [5] [%]	EC50 [2] [nM]
CCCCCCC/C=C/CCCCCCCC[C@@H]1OC[C@H](COP(=O)(O)O)O1	136	83	Agonist	97	28					1710	42			
CCCCCCCCCCCCC1OCC(COP(=O)(O)O)O1 (stereo unspecified)			Agonist		26	1110	652	7430	745					
CCCCCCC/C=C/CCCCCCCC[C@H]1OC[C@@H](COP(O)(O)=S)O1			Agonist	403	60					1320	87	1560	78	265
CCCCCCC/C=C/CCCCCCCC[C@@H]1OC[C@H](COP(O)(O)=S)O1			Agonist	344	66					1090	85	1410	113	194
CCCCCCC/C=C/CCCCCCCCC1OCC(COP(O)(O)=S)O1 (stereo unspecified)			Agonist	415	51					1170	87	981	73	639
CCCCCCC/C=C/CCCCCCCC[C@@H]1OC[C@@H](COP(O)(O)=S)O1			Agonist	363	64					1540	72	2260	102	204
CCCCCCCCc1ccc(CCCCCCC2OCC(COP(=O)(O)O)O2)cc1 (stereo unspecified)	504	171	Agonist	106	10	4660	1930							
CCCCCCC/C=C/CCCCCCCC[C@H]1OC[C@@H](COP(=O)(O)O)O1	209	77	Agonist	178	25									
CCCCCCC/C=C/CCCCCCCC[C@H]1OC[C@H](COP(O)(O)=S)O1			Agonist	252	74					1300	77	1580	127	127
CCCCCCCCc1ccc(CCCCCCC2OCC(COP(O)(O)=S)O2)cc1 (stereo unspecified)			Agonist	449	55								87	692

More lines, main results first:

IC50 [2] [nM]	Ki [2] [nM]	Activity [3]	IC50 (Autotaxin) [nM]	residual activity (Autotaxin) [%]	IC50 [4] [nM]	Ki [4] [nM]	IC50 [1] [nM]	Ki [1] [nM]	Structure (SMILES)	EC50 [1] [nM]	Emax [1] [%]	EC50 [4] [nM]	Emax [5] [%]	EC50 [2] [nM]
484	241	Agonist	238	46					CCCCCCC/C=C/CCCCCCCC[C@@H]1OC[C@@H](COP(=O)(O)O)O1	> 10000		> 10000		
		Agonist	803	54					C/C=C/C/C=C/C/C=C/CCCCCCCCC1OCC(COP(=O)(O)O)O1 (stereo unspecified)	1710	51	3600	29	7590
		Agonist	141	30	915	497			CCCCCCC/C=C/CCCCCCCCC1OCC(COP(=O)(O)O)O1 (stereo unspecified)	> 10000				
		Agonist	120	30					CCCCCCC/C=C/CCCCCCCC[C@H]1OC[C@H](COP(=O)(O)O)O1	1170	39			
